Experimental data: patent US20230295166A1, “ATR INHIBITORS AND USES THEREOF” (ANTENGENE DISCOVERY LIMITED, priority 2020, published 2023)

Key:
LoVo (CCL-229) cells = experiment: Tumor cell anti-proliferation assay (CTG assay); type: cell-based; settings: LoVo human colorectal cancer cells, 96 h, CellTiter-Glo
Procedure: Assay 2: Tumor Cell Anti-proliferation Assay (CTG Assay)
Human colorectal cancer cells HT-29 (HTB-38) and LoVo (CCL-229) were selected for the CTG assay, the two cell lines were originally obtained from the American Type Culture Collection (ATCC). FBS and appropriate additives were added into base medium to prepare complete medium, then the cell layer was briefly rinsed with 0.25% (w/v) Trypsin-0.038% (w/v) EDTA solution to remove all traces of serum that contains trypsin inhibitor. After that, appropriate volume of Trypsin-EDTA solution was added to flask and cells under an inverted microscope were observed until cell layer was dispersed. At last, appropriate volume of complete growth medium was added and cells were aspirated by gently pipetting. Numbers were collected and counted with Vi-cell XR and cell density was adjusted, cells were seeded into 96-well opaque-walled clear bottom tissue-culture treated plates in the CO2 incubator for 20-24 hours. All the test compounds were at 10 mM in DMSO. Compounds were then added to the cell media in 3-fold serial dilutions, the final DMSO concentration was 0.5%. Plates were incubated for 96 h at 5% CO2, 37° C. Before the measurement, the appropriate volume of CellTiter-Glo Buffer was transferred into the amber bottle containing CellTiter-Glo substrate to reconstitute the lyophilized enzyme/substrate mixture, mixed gently, thereby forming the CellTiter-Glo Reagent (Promega Cat. No. G7573). The plate and its contents were equilibrated to room temperature for approximately 30 minutes, then 100 μL of CellTiter-Glo Reagent was added to the assay plate, the contents were mixed for 2 minutes on an orbital shaker to induce cell lysis, incubated at room temperature for 10 minutes to stabilize luminescent signal. At last the clear bottom was pasted with white back seal and luminescence was recorded with Enspire. IC50 and GI50 values were calculated with XLFit curve fitting software using 4 Parameter Logistic Model Y=Bottom+(Top−Bottom)/(1+(IC50/X)^HillSlope).

ATR kinase = ATR kinase (Homo sapiens (Human), UniProt Q13535); experiment: ATR inhibition assay (mobility shift assay, phosphorylation of FAM-RAD17); type: biochemical; settings: ATR kinase (Eurofins), substrate FAM-RAD17, mobility shift
ATR kinase, sequence (Q13535 whole entry): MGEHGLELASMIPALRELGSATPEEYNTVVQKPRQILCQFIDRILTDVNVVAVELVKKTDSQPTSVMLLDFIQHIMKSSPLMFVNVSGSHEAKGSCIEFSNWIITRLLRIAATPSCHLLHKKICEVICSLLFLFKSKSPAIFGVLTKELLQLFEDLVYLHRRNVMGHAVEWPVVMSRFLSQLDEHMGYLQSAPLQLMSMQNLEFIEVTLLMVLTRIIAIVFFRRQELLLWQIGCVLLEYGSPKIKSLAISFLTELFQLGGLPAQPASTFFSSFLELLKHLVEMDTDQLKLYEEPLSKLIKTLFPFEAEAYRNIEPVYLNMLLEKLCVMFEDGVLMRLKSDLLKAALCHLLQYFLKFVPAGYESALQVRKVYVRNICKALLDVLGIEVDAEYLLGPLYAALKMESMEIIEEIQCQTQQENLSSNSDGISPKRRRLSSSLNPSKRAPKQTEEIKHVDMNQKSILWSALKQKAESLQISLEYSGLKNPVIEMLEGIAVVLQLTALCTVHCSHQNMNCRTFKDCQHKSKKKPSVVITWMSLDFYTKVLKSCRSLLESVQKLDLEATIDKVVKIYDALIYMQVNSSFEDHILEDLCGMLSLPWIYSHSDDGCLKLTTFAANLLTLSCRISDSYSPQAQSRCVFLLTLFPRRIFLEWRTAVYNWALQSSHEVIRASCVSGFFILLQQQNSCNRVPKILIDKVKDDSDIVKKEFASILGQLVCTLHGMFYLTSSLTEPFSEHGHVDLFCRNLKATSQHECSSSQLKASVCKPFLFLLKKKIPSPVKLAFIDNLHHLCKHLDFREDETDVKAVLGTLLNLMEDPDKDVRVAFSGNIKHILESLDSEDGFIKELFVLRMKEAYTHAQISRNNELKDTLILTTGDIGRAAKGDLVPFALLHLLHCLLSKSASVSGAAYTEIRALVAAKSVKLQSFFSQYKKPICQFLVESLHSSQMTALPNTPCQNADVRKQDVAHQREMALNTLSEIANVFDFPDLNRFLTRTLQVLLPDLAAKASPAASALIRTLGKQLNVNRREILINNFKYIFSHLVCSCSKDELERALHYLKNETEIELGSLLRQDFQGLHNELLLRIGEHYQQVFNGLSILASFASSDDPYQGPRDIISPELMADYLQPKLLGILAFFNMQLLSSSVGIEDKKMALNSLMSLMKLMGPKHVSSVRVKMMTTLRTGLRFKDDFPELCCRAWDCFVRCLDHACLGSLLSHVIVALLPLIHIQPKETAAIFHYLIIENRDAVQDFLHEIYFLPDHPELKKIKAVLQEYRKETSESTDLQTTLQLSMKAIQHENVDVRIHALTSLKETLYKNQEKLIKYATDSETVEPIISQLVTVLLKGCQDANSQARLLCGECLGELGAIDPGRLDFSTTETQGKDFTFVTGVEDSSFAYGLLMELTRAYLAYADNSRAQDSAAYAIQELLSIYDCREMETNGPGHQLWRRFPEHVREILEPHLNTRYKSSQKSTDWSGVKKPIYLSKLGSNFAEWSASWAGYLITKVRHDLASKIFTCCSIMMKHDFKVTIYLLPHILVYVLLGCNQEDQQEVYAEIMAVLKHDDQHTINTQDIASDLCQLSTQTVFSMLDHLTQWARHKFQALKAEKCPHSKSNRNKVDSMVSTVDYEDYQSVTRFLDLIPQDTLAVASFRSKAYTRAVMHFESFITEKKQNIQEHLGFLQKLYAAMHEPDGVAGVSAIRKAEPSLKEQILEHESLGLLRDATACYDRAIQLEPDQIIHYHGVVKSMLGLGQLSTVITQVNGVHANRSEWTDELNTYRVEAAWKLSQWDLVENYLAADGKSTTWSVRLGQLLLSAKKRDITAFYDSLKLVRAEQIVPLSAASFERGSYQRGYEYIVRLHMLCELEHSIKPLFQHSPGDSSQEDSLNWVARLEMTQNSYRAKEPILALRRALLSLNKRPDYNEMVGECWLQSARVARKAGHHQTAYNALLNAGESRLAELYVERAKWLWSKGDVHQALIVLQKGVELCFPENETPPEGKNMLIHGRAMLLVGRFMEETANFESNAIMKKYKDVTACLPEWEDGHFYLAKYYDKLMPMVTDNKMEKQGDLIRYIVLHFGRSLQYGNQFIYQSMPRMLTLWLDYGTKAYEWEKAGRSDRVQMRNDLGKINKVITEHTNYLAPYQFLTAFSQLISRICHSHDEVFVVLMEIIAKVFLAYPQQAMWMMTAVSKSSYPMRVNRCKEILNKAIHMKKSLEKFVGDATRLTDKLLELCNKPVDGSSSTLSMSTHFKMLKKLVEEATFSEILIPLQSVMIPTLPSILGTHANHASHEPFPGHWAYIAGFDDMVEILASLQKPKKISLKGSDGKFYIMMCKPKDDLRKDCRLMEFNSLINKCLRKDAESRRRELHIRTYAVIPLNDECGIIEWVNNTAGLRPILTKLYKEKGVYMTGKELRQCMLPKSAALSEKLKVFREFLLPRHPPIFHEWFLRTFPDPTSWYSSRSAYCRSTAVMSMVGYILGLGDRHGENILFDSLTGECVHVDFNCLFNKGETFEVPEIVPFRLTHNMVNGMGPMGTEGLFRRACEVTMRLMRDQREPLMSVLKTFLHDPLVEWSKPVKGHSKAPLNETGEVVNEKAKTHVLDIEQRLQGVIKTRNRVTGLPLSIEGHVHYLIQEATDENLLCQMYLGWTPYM
ATR kinase, sequence (Q8WXE1 whole entry partner): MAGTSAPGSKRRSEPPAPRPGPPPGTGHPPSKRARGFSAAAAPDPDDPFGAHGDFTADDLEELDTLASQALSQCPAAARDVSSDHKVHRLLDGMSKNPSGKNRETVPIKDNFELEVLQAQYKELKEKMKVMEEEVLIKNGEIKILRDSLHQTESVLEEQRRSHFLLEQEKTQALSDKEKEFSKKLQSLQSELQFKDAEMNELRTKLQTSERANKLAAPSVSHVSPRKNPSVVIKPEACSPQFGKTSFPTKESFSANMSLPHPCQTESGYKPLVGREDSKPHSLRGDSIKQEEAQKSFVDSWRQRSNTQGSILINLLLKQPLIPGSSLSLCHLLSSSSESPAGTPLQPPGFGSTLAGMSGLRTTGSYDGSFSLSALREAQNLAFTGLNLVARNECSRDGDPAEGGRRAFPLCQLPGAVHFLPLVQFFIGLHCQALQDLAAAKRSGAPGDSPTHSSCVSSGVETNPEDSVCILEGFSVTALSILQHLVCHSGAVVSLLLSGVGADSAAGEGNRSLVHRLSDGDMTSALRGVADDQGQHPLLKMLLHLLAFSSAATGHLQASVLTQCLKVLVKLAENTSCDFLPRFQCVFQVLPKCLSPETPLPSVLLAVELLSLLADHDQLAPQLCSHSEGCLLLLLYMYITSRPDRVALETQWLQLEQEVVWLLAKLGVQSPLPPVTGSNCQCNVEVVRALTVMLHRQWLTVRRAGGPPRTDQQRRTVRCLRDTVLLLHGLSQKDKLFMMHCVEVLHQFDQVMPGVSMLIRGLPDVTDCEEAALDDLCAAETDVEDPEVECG
Procedure: Assay 1: ATR Inhibition Assay
Detection of ATR kinase activity utilized the Mobility shift assay to measure the phosphorylation of the substrate protein FAM-RAD17 (GL, Cat. No. 514318, Lot. No. P19042-MJ524315). The assay was developed and conducted at Chempartner. All the test compounds were dissolved in 100% DMSO at concentration of 20 mM, then prepare compounds and conducted the assay as follows: • 1) Transfer 80 μl 20 mM compound to 40 μl of 100% DMSO in a 96-well plate. • 2) Serially dilute the compound by transferring 20 μl to 60 μl of 100% DMSO in the next well and so forth for a total of 10 concentrations. • 3) Add 100 μl of 100% DMSO to two empty wells for no compound control and no enzyme control in the same 96-well plate. Mark the plate as source plate. • 4) Transfer 40 μl of compound from source plate to a new 384-well plate as the intermediate plate. • 5) Transfer 60 nl compounds to assay plate by Echo. • 6) Add ATR kinase (Eurofins, Cat. No. 14-953, Lot. No. D14 JP007N) into Kinase base buffer (50 mM HEPES, pH 7.5; 0.0015% Brij-35; 0.01% Triton) to prepare 2× enzyme solution, then add 10 μl of 2× enzyme solution to each well of the 384-well assay plate, incubate at room temperature for 10 min. • 7) Add FAM-RAD17 and ATP (Sigma, Cat. No. A7699-1G, CAS No. 987-65-5) in the kinase base buffer to prepare 2×peptide solution, then add 10 μl to the assay plate. • 8) Incubate at 28° C. for specified period of time. Add 40 μl of stop buffer (100 mM HEPES, pH 7.5; 0.015% Brij-35; 0.2% Coating Reagent #3; 50 mM EDTA) to stop reaction. • 9) Collect data on Caliper. Convert conversion values to inhibition values.
Percent inhibition=(max−conversion)/(max−min)*100 wherein “max” stands for DMSO control; “min” stands for low control.
Fit the data in XLFit excel add-in version 5.4.0.8 to obtain IC50 values. Equation used is:
Y=Bottom+(Top−Bottom)/(1+(IC50/X)^HillSlope) wherein X means concentration in a format not transformed to logarithms.

| IC50 (LoVo (CCL-229) cells) | IC50 (ATR kinase) | Compound |
| --- | --- | --- |
| 553 nM | < 100 nM | CS(=O)(=O)C1(c2cc(N3C[C@H]4CC[C@@H](C3)O4)nn3c(-c4ccn[nH]4)ncc23)CC1 [Example 32, (1R,5S)-3-(4-(1-(methylsulfonyl)cyclopropyl)-7-(1H-pyrazol-5-yl)imidazo[1,5-b]pyridazin-2-yl)-8-oxa-3-azabicyclo[3.2.1]octane] |
| 15.3 nM | < 100 nM | C[C@@H]1COCCN1c1cc(S(=O)(=O)C2CC2)c2snc(-c3ccn[nH]3)c2n1 [Example 75, (R)-4-(7-(cyclopropylsulfonyl)-3-(1H-pyrazol-5-yl)isothiazolo[4,5-b]pyridin-5-yl)-3-methylmorpholine] |
|  | < 100 nM | C[C@@H]1COCCN1c1cc(C2(S(C)(=O)=O)CC2)n2ncc(-c3cc[nH]c3)c2n1 [Example 9, (R)-3-methyl-4-(7-(1-(methylsulfonyl)cyclopropyl)-3-(1H-pyrrol-3-yl)pyrazolo[1,5-a]pyrimidin-5-yl)morpholine] |
|  | < 100 nM | C[C@@H]1COCCN1c1cc(C2([S@@](C)(=N)=O)CC2)n2ncc(-c3ccn[nH]3)c2n1 [Example 7b, (S)-imino(methyl)(1-(5-((R)-3-methylmorpholino)-3-(1H-pyrazol-5-yl)pyrazolo[1,5-a]pyrimidin-7-yl)cyclopropyl)-λ6-sulfanone] |
| 17.7 nM | < 100 nM | Cc1cc(-c2nsc3c(C4(C#N)CC4)cc(N4CCOC[C@H]4C)nc23)[nH]n1 [Example 52, (R)-1-(3-(3-methyl-1H-pyrazol-5-yl)-5-(3-methylmorpholino)isothiazolo [4,5-b]pyridin-7-yl)cyclopropane-1-carbonitrile] |
| 803 nM | < 100 nM | C[C@@H]1COCCN1c1cc(-c2cccnc2F)n2ncc(-c3ccn[nH]3)c2n1 [Example 6, (R)-4-(7-(2-fluoropyridin-3-yl)-3-(1H-pyrazol-5-yl)pyrazolo[1,5-a]pyrimidin-5-yl)-3-methylmorpholine] |
| 38.9 nM | < 100 nM | Cc1cc(-c2ncc3c(C4(C#N)CC4)cc(N4CCOC[C@H]4C)nn23)[nH]n1 [Example 63, (R)-1-(7-(3-methyl-1H-pyrazol-5-yl)-2-(3-methylmorpholino)imidazo[1,5-b]pyridazin-4-yl)cyclopropane-1-carbonitrile] |
| 15.1 nM | < 100 nM | Cc1cc(-c2ncc3c(C(C)(C)C#N)cc(N4CCOC[C@H]4C)nn23)[nH]n1 [Example 64, (R)-2-methyl-2-(7-(3-methyl-1H-pyrazol-5-yl)-2-(3-methylmorpholino)imidazo[1,5-b]pyridazin-4-yl)propanenitrile] |
| 384 nM | < 100 nM | Cc1cc(-c2cnn3c(C4(S(C)(=O)=O)CC4)cc(N4CCOC[C@H]4C)nc23)[nH]n1 [Example 11, (R)-3-methyl-4-(3-(3-methyl-1H-pyrazol-5-yl)-7-(1-(methylsulfonyl)cyclopropyl)pyrazolo[1,5-a]pyrimidin-5-yl)morpholine] |
|  | > 500 nM | C[C@@H]1COCCN1c1cc(-c2ccnn2C)n2ncc(-c3cn[nH]c3)c2n1 [Example 2, (R)-3-methyl-4-(7-(1-methyl-1H-pyrazol-5-yl)-3-(1H-pyrazol-4-yl)pyrazolo [1,5-a]pyrimidin-5-yl)morpholine] |
|  | < 100 nM | C[C@@H]1COCCN1c1cc(-c2ccnn2C)n2ncc(-c3ccc[nH]3)c2n1 [Example 4, (R)-3-methyl-4-(7-(1-methyl-1H-pyrazol-5-yl)-3-(1H-pyrrol-2-yl)pyrazolo[1,5-a]pyrimidin-5-yl)morpholine] |
|  | < 100 nM | C[C@@H]1COCCN1c1cc(-c2ccnn2C)c2ncc(-c3ccn[nH]3)n2n1 [Example 21, (R)-3-methyl-4-(8-(1-methyl-1H-pyrazol-5-yl)-3-(1H-pyrazol-5-yl)imidazo[1,2-b]pyridazin-6-yl)morpholine] |
|  | < 100 nM | CCP(=O)(CC)c1cc(N2CCOC[C@H]2C)nn2c(-c3ccn[nH]3)ncc12 [Example 39, (3R)-4-[4-(diethylphosphoryl)-7-(1H-pyrazol-5-yl)imidazo[1,5-b]pyridazin-2-yl]-3-methylmorpholine] |
|  | < 100 nM | C[C@@H]1COCCN1c1cc(-c2ccn[nH]2)n2ncc(-c3ccn[nH]3)c2n1 [Example 10, (R)-4-(3,7-di(1H-pyrazol-5-yl)pyrazolo[1,5-a]pyrimidin-5-yl)-3-methylmorpholine] |
|  | 100 to 500 nM | C[C@@H]1COCCN1c1cc(-c2ccnn2C)n2ncc(-c3cccnc3)c2n1 [Example 3, (R)-3-methyl-4-(7-(1-methyl-1H-pyrazol-5-yl)-3-(pyridin-3-yl)pyrazolo[1,5-a]pyrimidin-5-yl)morpholine] |
| 15 nM |  | C[C@@H]1COCCN1c1cc(-c2cnnn2C)c2snc(-c3ccn[nH]3)c2n1 [Example 69, (R)-3-methyl-4-(7-(1-methyl-1H-1,2,3-triazol-5-yl)-3-(1H-pyrazol-5-yl)isothiazolo[4,5-b]pyridin-5-yl)morpholine] |
| 17.1 nM |  | Cc1cc(-c2nc(C)c3c(-c4ccnn4C)cc(N4CCOC[C@H]4C)nn23)[nH]n1 [Example 47, (R)-3-methyl-4-(5-methyl-4-(1-methyl-1H-pyrazol-5-yl)-7-(3-methyl-1H-pyrazol-5-yl)imidazo[1,5-b]pyridazin-2-yl)morpholine] |
|  | > 500 nM | Cc1cn[nH]c1-c1cnn2c(C3(S(C)(=O)=O)CC3)cc(N3CCOC[C@H]3C)nc12 [Example 14, (R)-3-methyl-4-(3-(4-methyl-1H-pyrazol-5-yl)-7-(1-(methylsulfonyl)cyclopropyl)pyrazolo[1,5-a]pyrimidin-5-yl)morpholine] |
| 18 nM |  | Cc1cnn(C)c1-c1cc(N2CCOC[C@H]2C)nc2c(-c3ccn[nH]3)nsc12 [Example 70, (R)-4-(7-(1,4-dimethyl-1H-pyrazol-5-yl)-3-(1H-pyrazol-5-yl)isothiazolo[4,5-b]pyridin-5-yl)-3-methylmorpholine] |
|  | < 100 nM | C[C@@H]1COCCN1c1cc(C2(S(C)(=O)=O)CC2)n2ncc(-c3ccc[nH]3)c2n1 [Example 8, (R)-3-methyl-4-(7-(1-(methylsulfonyl)cyclopropyl)-3-(1H-pyrrol-2-yl)pyrazolo[1,5-a]pyrimidin-5-yl)morpholine] |
| 55.2 nM |  | Cc1nc(-c2ccn[nH]2)n2nc(N3CC4CCC(C3)O4)cc(-c3ccnn3C)c12 [Example 65, 3-[5-methyl-4-(1-methyl-1H-pyrazol-5-yl)-7-(1H-pyrazol-5-yl)imidazo [1,5-b]pyridazin-2-yl]-8-oxa-3-azabicyclo[3.2.1]octane] |
| 23.8 nM |  | C[C@@H]1COCCN1c1cc(C(C)(C)C#N)c2cnc(-c3ccn[nH]3)n2n1 [Example 40, (R)-2-methyl-2-(2-(3-methylmorpholino)-7-(1H-pyrazol-5-yl)imidazo[1,5-b]pyridazin-4-yl)propanenitrile] |

| Compound | IC50 (LoVo (CCL-229) cells) | IC50 (ATR kinase) |
| --- | --- | --- |
| C[C@@H]1COCCN1c1cc(C(C)(C)C#N)c2snc(-c3ccn[nH]3)c2n1 [Example 53, (R)-2-methyl-2-(5-(3-methylmorpholino)-3-(1H-pyrazol-5-yl)isothiazolo [4,5-b]pyridin-7-yl)propanenitrile] | 12.8 nM | < 100 nM |
| C[C@@H]1COCCN1c1cc(C2([S@](C)(=N)=O)CC2)n2ncc(-c3ccn[nH]3)c2n1 [Example 7a, (R)-imino(methyl)(1-(5-((R)-3-methylmorpholino)-3-(1H-pyrazol-5-yl)pyrazolo[1,5-a]pyrimidin-7-yl)cyclopropyl)-λ6-sulfanone] |  | < 100 nM |
